Assay results: patent US7781596B1, “Substituted 2-phenylbenzimidazoles, the production thereof and their use” (Abbott Laboratories, priority 1998, dated 2010)
Counter-ions that a name gives are not always drawn. Like-named read-outs stand apart in the source and are kept apart here.

What was measured:
[1] = pH 5
Method: (§1) If the measured substance is not in the form of a water-soluble salt, it was dissolved in the minimum amount of dimethyl sulfoxide and then diluted with water (final dimethyl sulfoxide concentration≦1%), after which the pH was again adjusted.

circulatory failure = details: S. Cuzzocrea et al., Br. J. Pharmacol. 1997, 121, 1065-1074; cited from earlier work
[2] = Determination of the solubility in water; details: solution adjusted to pH 5 to 6 with sodium acetate, DMSO <=1% if not a water-soluble salt
Method: as §1

## CCN(CC)CCOc1ccc(-c2nc3c(C(N)=O)cccc3[nH]2)cc1 [Example 2, 2-(4-(2-(N,N-Diethylamino)eth-1-yloxy)phenyl)benzimidazole-4-carboxamide×2 hydrochloride]
[1]
  solubility in water: > 0.5%

## NC(=O)c1cccc(N)c1 [3-aminobenzamide]
Circulatory failure
  effects in a model of circulatory failure: protective effects

## COc1ccc(-c2nc3cccc(C(N)=O)c3[nH]2)cc1 [NU 1076]
[2]
  solubility in water: < 0.01%
